Data from patent US7977352B2, “Triazolopyridine compounds useful for the treatment of degenerative and inflammatory diseases” (Galapagos NV, priority 2006, dated 2011).

Key:
TAK1-TAB1 fusion protein = biological target: T1, TAK1-TAB1 fusion protein (Homo sapiens, UniProt O43318); experiment: In vitro TAK1 kinase assay; format: biochemical; details: casein substrate, [33P]-γ-ATP, 90 minutes at 30° C., semi-quantitative score, read-out: POTENCY TAK1 (MAP3K7)
T1 construct: purchased Upstate 14-600
T1 sequence (O43318 with tags, fused parts or gaps limits assumed): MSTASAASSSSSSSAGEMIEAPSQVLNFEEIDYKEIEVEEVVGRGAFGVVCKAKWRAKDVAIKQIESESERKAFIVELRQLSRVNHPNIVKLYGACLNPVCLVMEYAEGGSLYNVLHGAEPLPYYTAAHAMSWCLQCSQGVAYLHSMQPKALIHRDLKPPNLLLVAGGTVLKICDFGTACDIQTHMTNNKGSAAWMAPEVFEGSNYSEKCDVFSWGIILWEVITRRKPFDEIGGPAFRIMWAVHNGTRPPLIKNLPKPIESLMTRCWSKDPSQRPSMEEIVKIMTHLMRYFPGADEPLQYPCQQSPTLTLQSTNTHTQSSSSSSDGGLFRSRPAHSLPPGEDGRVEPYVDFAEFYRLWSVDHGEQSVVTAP
Protocol: For assessing TAK1 inhibition, active TAK1-TAB1 fusion protein was used from Upstate (Cat. No, 14-600). Kinase reactions are set up in 96-well polypropylene plates in 25 μL containing 0.5 mU TAK1-TAB1 fusion protein, 5mM ATP, 0.01 μCi/μL [^33P]-γ-ATP, 0.1 mg/mL casein substrate in 1× reaction buffer containing 10 mM MOPS pH 7.0, 1 mM EDTA.
Starting from the compound master stocks (all at 10 mM concentration in 100% DMSO) a 3-fold serial dilution is made in 96-well plates in 100% DMSO. Plates are further diluted […] in H2O containing 3.5% DMSO, to obtain an intermediate work stock with compounds at 5× the final assay concentration in 5% DMSO.
5 μL of the intermediate stock is transferred into V-bottom 96 well polypropylene plates and 11 μL of Enzyme mix is added. Enzyme mix is made by combining 5 μL 5× reaction buffer ([…] pH 7.0, 1 mM EDTA), 5 μL casein (Sigma) diluted in H20 to 0.5 mg/mL and 1 μL of TAK1-TAB1 fusion protein that was prediluted to 0.5 mU/μL in 1× enzyme dilution buffer (20 mM MOPS pH 7.0, 0.1 mM EDTA, 0.01% Brij-35, 5% glycerol, 1 mM DTT, 1 mg/ml BSA).
The reactions are started by the addition of 9 μL of mixture containing ATP (20.83 uM) and [^33P]-γ-ATP (0.028 μCi/μL).
The assay is stopped 90 minutes after incubation at 30° C. by the addition of 25 μL phosphoric acid (150 mM). The label incorporated into the casein substrate is separated from labeled unincorporated ATP by filtration onto 96-well filter plates using a harvester device. After 6 washes with 75 mM phosphoric acid, the bottom of the filter plates are sealed, and incorporated label is quantified after addition of 40 μL scintillation fluid using TopCount.

[1] = tested on: MMP1 expression by activated synovial fibroblasts (RASFs); experiment: MMP assay: MMP1 expression by RASFs triggered with TNF-α (MMP1 ELISA); format: cell-based; details: Fibroblast, 48 h, TNF-α trigger 10 ng/mL, semi-quantitative score, read-out: REDUCTION MMP1/TNFa
Protocol: A 384-well format ELISA for measurement of MMP1 is developed. Various primary antibodies are tested, as well as various ELISA protocols. The following protocol is developed and validated to measure MMP1 levels in SF supernatant in 384 well plates: white Lumitrac 600 384 well plates (Greiner) are coated with 2 μg/mL anti-MMP1 antibody MAB1346 (Chemicon). The antibody is diluted in buffer 40 (1.21 g Tris base (Sigma), 0.58 g NaCl (Calbiochem) and 5 mL 10% NaN3 (Sigma) in 1 L milliQ water and adjusted to pH 8.5). After overnight incubation at 4° C., plates are washed with PBS (80 g NaCl, 2 g KCl (Sigma), 11.5 g Na2HPO4.7H2O and 2 g KH2PO4 in 10 L milliQ; pH 7.4) and blocked with 100 μL/well Casein buffer (2% Casein (VWR International) in PBS). Next day, casein buffer is removed from ELISA plates and replaced by 50 μL/well EC buffer (4 g casein, 2.13 g Na2HPO4 (Sigma), 2 g bovine albumin (Sigma), 0.69 g NaH2PO4.H2O (Sigma), 0.5 g CHAPS (Roche), 23.3 g NaCl, 4 mL 0.5 M EDTA pH 8 (Invitrogen), 5 mL 10% NaN3 in 1 L milliQ and adjusted to pH 7.0). 0.25 mM DTT (Sigma) is added to the thawed sample plates. After removal of the EC buffer, 20 μL of sample is transferred to the ELISA plates. After overnight incubation at 4° C. plates are washed twice with PBS and once with PBST (PBS with 0.05% Tween-20 (Sigma)) and incubated with 35 μL/well biotinylated anti-MMP1 antibody solution (R&D). This secondary antibody is diluted in buffer C (0.82 g NaH2PO4.H2O, 4.82 g Na2HPO4, 46.6 g NaCl, 20 g bovine albumin and 4 mL 0.5M EDTA pH 8 in 2 L milliQ and adjusted to pH 7.0) at a concentration of 5 μg/mL. After 2 h of incubation at RT, plates are washed as described above and incubated with 50 μL/well streptavidin-HRP conjugate (Biosource). Streptavidin-HRP conjugate is diluted in buffer C at a concentration of 0.25 μg/mL. After 45 min, plates are washed as described above and incubated for 5 min with 50 μL/well BM Chem ELISA Substrate (Roche). Readout is performed on the Luminoscan Ascent Luminometer (Labsystems) with an integration time of 200 msec or with an Envision reader (Perkin Elmer).
SFs were acquired at passage 1 from a commercial supplier (Cell applications, Inc.). SFs are cultured in DMEM supplemented with 10% heat-inactivated FBS, 1× penicillin/streptomycin (Invitrogen) at 37° C., 10% CO2 until passage 6. Aliquots of the cells are frozen and cryopreserved in liquid nitrogen. Starting from a cryopreserved aliquot, cells are further expanded by sub-culturing cells at 1/3 ratio every week. Cells between passage 10 and 12 are routinely used in compound testing according to following protocol.
Starting from the compound master stocks (all at 10 mM concentration in 100% DMSO) a 3-fold serial dilution is made in 96-well plates in 100% DMSO. Then, plates are further diluted 45-fold in M199 medium supplemented with 1% heat-inactivated FBS to obtain a intermediate work stock.
At day 1, RASFs are seeded in 96 well plates (flat bottom, tissue culture treated, Greiner) at a density of 3000 cells/well in complete synovial growth medium (Cell Applications). Day 5, the medium is completely removed from the cells, and replaced by 81 μL of M199 medium supplemented with 1% heat-inactivated FBS followed by addition of 10 μL compound out of the intermediate work stock. After an incubation period of 90 minutes, which allows the compounds to equilibrate and enter the cells, cells are stimulated with either TNF-α or ‘complex trigger’. TNF-α trigger is added in a volume of […] to obtain final concentration of 10 ng/mL. For that, TNF-α stock (PeproTech) at 10 μg/mL was diluted to 100 ng/mL TNF-a in M199 medium supplemented with 1% FBS. ‘Complex trigger’ mix is added in a volume of 20 μL to obtain a final concentration of 12.5%. For that, ‘complex trigger’ mix, is diluted to 80% with M199 medium supplemented with 1% FBS. […]

SMILES | IC50 (TAK1-TAB1 fusion protein) | IC50 [1]
C[C@@H]1CN(C)[C@@H](C)CN1c1ccc(Nc2ccc(-c3cc[nH]c(=O)c3)n3ncnc23)cc1F (relative stereo) [Example 11, rel-4-[8-({3-fluoro-4-[(2R,5S)-2,4,5-trimethylpiperazin-1-yl]phenyl}amino)[1,2,4]triazolo[1,5-a]pyridin-5-yl]pyridin-2(1H)-one] | < 500 nM | 1000 to 5000 nM
CCN1CCN(c2ccc(Nc3ccc(-c4ccc(C(N)=O)cc4)n4ncnc34)cc2)CC1 [Example 12, 4-(8-{[4-(4-ethylpiperazin-1-yl)phenyl]amino}[1,2,4]triazolo[1,5-a]pyridin-5-yl)benzamide] | < 500 nM | < 500 nM
O=c1cc(-c2ccc(Nc3ccc(N4CCN(C5CCCCC5)CC4)cc3)c3ncnn23)cc[nH]1 [Example 25, 4-(8-{[4-(4-cyclohexylpiperazin-1-yl)phenyl]amino}[1,2,4]triazolo[1,5-a]pyridin-5-yl)pyridin-2(1H)-one] | < 500 nM | 1000 to 5000 nM
O=c1cc(-c2ccc(Nc3ccc(N4CCN(C5CCC5)CC4)cc3)c3ncnn23)cc[nH]1 [Example 24, 4-(8-{[4-(4-cyclobutylpiperazin-1-yl)phenyl]amino}[1,2,4]triazolo[1,5-a]pyridin-5-yl)pyridin-2(1H)-one] | < 500 nM | 1000 to 5000 nM
CC(C)N1CCN(c2ccc(Nc3ccc(-c4ccc5[nH]ccc5c4)n4ncnc34)cc2)CC1 [Example 51, 5-(1H-indol-5-yl)-N-[4-(4-isopropylpiperazin-1-yl)phenyl][1,2,4]triazolo[1,5-a]pyridin-8-amine] | > 10000 nM | > 10000 nM
CCC(CC)N1CCN(c2ccc(Nc3ccc(-c4ccnc(OC)c4)n4ncnc34)cc2)CC1 [Example 28, N-{4-[4-(1-ethylpropyl)piperazin-1-yl]phenyl}-5-(2-methoxypyridin-4-yl)[1,2,4]triazolo[1,5-a]pyridin-8-amine] | > 10000 nM | 1000 to 5000 nM
CCC(CC)N1CCN(c2ccc(Nc3ccc(-c4cn[nH]c4)n4ncnc34)cc2)CC1 [Example 34, N-{4-[4-(1-ethylpropyl)piperazin-1-yl]phenyl}-5-(1H-pyrazol-4-yl)[1,2,4]triazolo[1,5-a]pyridin-8-amine] | < 500 nM | 1000 to 5000 nM
CCN1CCN(c2ccc(Nc3ccc(-c4cc[nH]c(=O)c4)n4ncnc34)cc2)CC1 [Example 19, 4-(8-{[4-(4-ethylpiperazin-1-yl)phenyl]amino}[1,2,4]triazolo[1,5-a]pyridin-5-yl)pyridin-2(1H)-one] | < 500 nM | 1000 to 5000 nM
CC(C)N1CCN(c2ccc(Nc3ccc(-c4ccc5cc[nH]c5c4)n4ncnc34)cc2)CC1 [Example 53, 5-(1H-indol-6-yl)-N-[4-(4-isopropylpiperazin-1-yl)phenyl][1,2,4]triazolo[1,5-a]pyridin-8-amine] | > 10000 nM | > 10000 nM
CC(C)CCN1CCN(c2ccc(Nc3ccc(-c4ccc(C(N)=O)cc4)n4ncnc34)cc2)CC1 [Example 15, 4-[8-({4-[4-(3-methylbutyl)piperazin-1-yl]phenyl}amino)[1,2,4]triazolo[1,5-a]pyridin-5-yl]benzamide] | < 500 nM | 1000 to 5000 nM
CC(C)N1CCN(c2ccc(Nc3ccc(-c4cccc(C(N)=O)c4)n4ncnc34)cc2)CC1 [Example 44, 3-(8-{[4-(4-isopropylpiperazin-1-yl)phenyl]amino}[1,2,4]triazolo[1,5-a]pyridin-5-yl)benzamide] | > 10000 nM | 1000 to 5000 nM
O=c1cc(-c2ccc(Nc3ccc(N4CCN(C5CC5)CC4)cc3)c3ncnn23)cc[nH]1 [Example 23, 4-(8-{[4-(4-cyclopropylpiperazin-1-yl)phenyl]amino}[1,2,4]triazolo[1,5-a]pyridin-5-yl)pyridin-2(1H)-one] | < 500 nM | 1000 to 5000 nM
CC(C)N1CCN(c2ccc(Nc3ccc(-c4c[nH]c(=O)[nH]c4=O)n4ncnc34)cc2)CC1 [Example 55, 5-(8-{[4-(4-isopropylpiperazin-1-yl)phenyl]amino}[1,2,4]triazolo[1,5-a]pyridin-5-yl)pyrimidine-2,4(1H,3H)-dione] | > 10000 nM | > 10000 nM
C[C@@H]1CN(c2ccc(Nc3ccc(-c4cc[nH]c(=O)c4)n4ncnc34)cc2F)C[C@H](C)N1C [Example 9, 4-[8-({3-fluoro-4-[(3R,5S)-3,4,5-trimethylpiperazin-1-yl]phenyl}amino)[1,2,4]triazolo[1,5-a]pyridin-5-yl]pyridin-2(1H)-one] | 501 to 1000 nM | 1000 to 5000 nM
c1nc2c(Nc3ccc(N4CCOCC4)cc3)ccc(-c3ccc4[nH]ccc4c3)n2n1 [Example 50, 5-(1H-indol-5-yl)-N-(4-morpholin-4-ylphenyl)[1,2,4]triazolo[1,5-a]pyridin-8-amine] | > 10000 nM | 1000 to 5000 nM
c1cc(-c2ccc(Nc3ccc(N4CCOCC4)cc3)c3ncnn23)c2cc[nH]c2c1 [Example 48, 5-(1H-indol-4-yl)-N-(4-morpholin-4-ylphenyl)[1,2,4]triazolo[1,5-a]pyridin-8-amine] | > 10000 nM | 1000 to 5000 nM
